# Legend:
# KRAS G12C = KRAS G12C (Homo sapiens (Human), UniProt P01116, C118A/G12C); experiment: 2 h coupled exchange assay; type: biochemical; conditions: Avg 2 h Coupled exchange IC50, 2 h compound pre-incubation
# Method: The term “2 h coupled exchange assay” or “20 h coupled exchange assay” as used herein refers to the assay described in the Section entitled “BIOLOGICAL EVALUATION.”
# [1] = test system: A549 (human lung carcinoma) cells; experiment: Cell Viability Assay (CellTiter-Glo), A549; type: cell-based; conditions: Homo sapiens, A549, 72 h
# How it was run: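 Luminescent ATP read-out (CellTiter-Glo) after 72 h compound treatment of cells seeded overnight at 1.67E+04 cells/mL in RPMI 1640, 10% FBS; signal relative to DMSO, IC50 by 4-parameter logistic model.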
# [2] = test system: MIA PaCa-2 (human pancreatic carcinoma) cells; experiment: Cell Viability Assay (CellTiter-Glo), MIA PaCa-2; type: cell-based; conditions: Homo sapiens, MIA PaCa-2, 72 h
# Method: Serially-diluted compound or DMSO was added to the cells, and plates were incubated at 37° C., 5% CO2 for 72 h. Cell viability was measured using a CellTiter-Glo® Luminescent Cell Viability Assay kit (Promega) according to the manufacturer's protocol. The luminescence signal of treated samples was normalized to DMSO control, and data were analyzed using a 4-parameter logistic model to calculate IC50 values.
# [3] = SOS-mediated nucleotide exchange
# Chain of KRAS G12C (P01116 other isoform, or with tags, fused parts or gaps G12C/C118A): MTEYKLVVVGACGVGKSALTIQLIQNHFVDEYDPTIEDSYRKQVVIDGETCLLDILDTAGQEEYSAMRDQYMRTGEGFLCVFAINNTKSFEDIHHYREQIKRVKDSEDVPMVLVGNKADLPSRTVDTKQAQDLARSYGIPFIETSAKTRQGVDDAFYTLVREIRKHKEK
SMILES,IC50 (KRAS G12C; [3]) [nM],IC50 [1] [nM],IC50 [2] [nM],IC50 (KRAS G12C) [nM]
"C=CC(=O)N1CC2(CCN(c3nc4c(c(-c5c(C)ccc6cnn(C)c56)c3C#N)CCC3CC43)C2)C1 [Example 13-116, (6aR,7aS)-4-(1,6-dimethyl-1H-indazol-7-yl)-2-(2-(2-propenoyl)-2,6-diazaspiro[3.4]octan-6-yl)-6,6a,7,7a-tetrahydro-5H-cyclopropa[h]quinoline-3-carbonitrile|(6aS,7aR)-4-(1,6-dimethyl-1H-indazol-7-yl)-2-(2-(2-propenoyl)-2,6-diazaspiro[3.4]octan-6-yl)-6,6a,7,7a-tetrahydro-5H-cyclopropa[h]quinoline-3-carbonitrile]",30,> 5000,775,–
"C=CC(=O)N1CC2(CCN(c3nc4c(c(-c5c(C)ccc6cnn(C)c56)c3C#N)CCC(C)(C)C4)C2)C1 [Example 13-143, 4-(1,6-dimethyl-1H-indazol-7-yl)-7,7-dimethyl-2-(2-(2-propenoyl)-2,6-diazaspiro[3.4]octan-6-yl)-5,6,7,8-tetrahydro-3-quinolinecarbonitrile]",33,> 5000,602,–
"C=CC(=O)N1CC2(CCN(c3nc4c(c(-c5c(F)ccc6[nH]ncc56)c3C#N)COC(C)(C)C4)C2)C1 [Example 13-149, 4-(5-fluoro-1H-indazol-4-yl)-7,7-dimethyl-2-(2-(2-propenoyl)-2,6-diazaspiro[3.4]octan-6-yl)-7,8-dihydro-5H-pyrano[4,3-b]pyridine-3-carbonitrile]",276,11200,616,–
"C=CC(=O)N1CC2(CCN(c3nc4c(c(-c5c(C)cnc6[nH]ncc56)c3C#N)CCC(C)(C)C4)C2)C1 [Example 13-151, 7,7-dimethyl-4-(5-methyl-1H-pyrazolo[3,4-b]pyridin-4-yl)-2-(2-(2-propenoyl)-2,6-diazaspiro[3.4]octan-6-yl)-5,6,7,8-tetrahydro-3-quinolinecarbonitrile]",149,9340,1190,–
"C=CC(=O)N1CC2(CCN(c3nc4c(c(-c5cccc(C)c5Cl)c3C#N)COC(C)(C)C4)C2)C1 [Example 13-152, 4-(2-chloro-3-methylphenyl)-7,7-dimethyl-2-(2-(2-propenoyl)-2,6-diazaspiro[3.4]octan-6-yl)-7,8-dihydro-5H-pyrano[4,3-b]pyridine-3-carbonitrile]",787,9050,1930,–
"C=CC(=O)N1CC2(CCN(c3nc4c(c(-c5cc(O)cc(C)c5Cl)c3C#N)COC(C)(C)C4)C2)C1 [Example 13-153, 4-(2-chloro-5-hydroxy-3-methylphenyl)-7,7-dimethyl-2-(2-(2-propenoyl)-2,6-diazaspiro[3.4]octan-6-yl)-7,8-dihydro-5H-pyrano[4,3-b]pyridine-3-carbonitrile]",64,> 5000,58,–
"C=CC(=O)N1CC2(CCN(c3nc4c(c(-c5c(N)c(Cl)cc(Cl)c5F)c3C#N)COC(C)(C)C4)C2)C1 [Example 13-154, 4-(2-amino-3,5-dichloro-6-fluorophenyl)-7,7-dimethyl-2-(2-(2-propenoyl)-2,6-diazaspiro[3.4]octan-6-yl)-7,8-dihydro-5H-pyrano[4,3-b]pyridine-3-carbonitrile]",81,> 5000,776,–
"C=CC(=O)N1CC2(CCN(c3nc4c(c(-c5c(N)cccc5F)c3C#N)COC(C)(C)C4)C2)C1 [Example 13-157, 4-(2-amino-6-fluorophenyl)-7,7-dimethyl-2-(2-(2-propenoyl)-2,6-diazaspiro[3.4]octan-6-yl)-7,8-dihydro-5H-pyrano[4,3-b]pyridine-3-carbonitrile]",555,16200,357,–
"C=CC(=O)N1CC2(CCN(c3nc4cc(C5CC5)ccc4c(-c4c(C)ccc5[nH]ncc45)c3C#N)C2)C1 [Example 14-19, 7-cyclopropyl-4-(5-methyl-1H-indazol-4-yl)-2-(2-(2-propenoyl)-2,6-diazaspiro[3.4]octan-6-yl)-3-quinolinecarbonitrile]",–,> 5000,1690,130
"C=CC(=O)N1CC2(C1)CN(c1nc3cc(OC)ccc3c(-c3c(C)ccc4[nH]ncc34)c1C#N)CC2(F)F [Example 14-20, 2-(8,8-difluoro-2-(2-propenoyl)-2,6-diazaspiro[3.4]octan-6-yl)-7-methoxy-4-(5-methyl-1H-indazol-4-yl)-3-quinolinecarbonitrile]",–,> 5000,2550,31
"C=CC(=O)N1CC2(CCN(c3nc4c(c(-c5cccc6cn[nH]c56)c3C#N)C[C@H]3C[C@@H]4C3(C)C)C2)C1 [Example 14-25, (1R,9R)-6-(1H-indazol-7-yl)-10,10-dimethyl-4-(2-(2-propenoyl)-2,6-diazaspiro[3.4]octan-6-yl)-3-azatricyclo[7.1.1.0^2,7]undeca-2,4,6-triene-5-carbonitrile]",–,> 5000,669,110
"C=CC(=O)N1CC2(CCN(c3nc4c(c(-c5c(C)c(C)cc6cnn(C)c56)c3C)COC(C)(C)C4)C2)C1 [Example 14-40, 1-(6-(3,7,7-trimethyl-4-(1,5,6-trimethyl-1H-indazol-7-yl)-7,8-dihydro-5H-pyrano[4,3-b]pyridin-2-yl)-2,6-diazaspiro[3.4]octan-2-yl)-2-propen-1-one]",–,> 5000,502,110

# Now from value to compound:
IC50 (KRAS G12C; [3]) [nM],IC50 [1] [nM],IC50 [2] [nM],IC50 (KRAS G12C) [nM],SMILES
41,3800,172,–,"C=CC(=O)N1CC2(CCN(c3nc4c(c(-c5c(Cl)ccc6[nH]ncc56)c3C#N)CCC(C)(C)C4)C2)C1 [Example 13-144, 4-(5-chloro-1H-indazol-4-yl)-7,7-dimethyl-2-(2-(2-propenoyl)-2,6-diazaspiro[3.4]octan-6-yl)-5,6,7,8-tetrahydro-3-quinolinecarbonitrile]"
29,> 5000,71,–,"C=CC(=O)N1CC2(CCN(c3nc4c(c(-c5c(C)cc(F)c6[nH]ncc56)c3C#N)CCC(C)(C)C4)C2)C1 [Example 13-146, 4-(7-fluoro-5-methyl-1H-indazol-4-yl)-7,7-dimethyl-2-(2-(2-propenoyl)-2,6-diazaspiro[3.4]octan-6-yl)-5,6,7,8-tetrahydro-3-quinolinecarbonitrile]"
98,> 5000,176,–,"C=CC(=O)N1CC2(CCN(c3nc4c(c(-c5c(C)cc(F)c6[nH]ncc56)c3C#N)COC(C)(C)C4)C2)C1 [Example 13-147, 4-(7-fluoro-5-methyl-1H-indazol-4-yl)-7,7-dimethyl-2-(2-(2-propenoyl)-2,6-diazaspiro[3.4]octan-6-yl)-7,8-dihydro-5H-pyrano[4,3-b]pyridine-3-carbonitrile]"
26,> 5000,103,–,"C=CC(=O)N1CC2(CCN(c3nc4c(c(-c5c(Cl)ccc6[nH]ncc56)c3C#N)COC(C)(C)C4)C2)C1 [Example 13-148, 4-(5-chloro-1H-indazol-4-yl)-7,7-dimethyl-2-(2-(2-propenoyl)-2,6-diazaspiro[3.4]octan-6-yl)-7,8-dihydro-5H-pyrano[4,3-b]pyridine-3-carbonitrile]"
87,> 5000,458,–,"C=CC(=O)N1CC2(CCN(c3nc4ccccc4c(-c4c(C)c(F)cc5[nH]ncc45)c3C#N)C2)C1 [Example 14-2, 4-(6-fluoro-5-methyl-1H-indazol-4-yl)-2-(2-(2-propenoyl)-2,6-diazaspiro[3.4]octan-6-yl)-3-quinolinecarbonitrile]"
–,> 5000,324,43,"C=CC(=O)N1CC2(CCN(c3nc4ccccc4c(-c4c(C)c(Cl)cc5[nH]ncc45)c3C#N)C2)C1 [Example 14-18, 4-(6-chloro-5-methyl-1H-indazol-4-yl)-2-(2-(2-propenoyl)-2,6-diazaspiro[3.4]octan-6-yl)-3-quinolinecarbonitrile]"
–,> 5000,447,111,"C=CC(=O)N1CC2(CCN(c3nc4cc(OC)ccc4c(-c4c(C)ccc5[nH]ncc45)c3C#N)C2C)C1 [Example 14-21, 7-methoxy-4-(5-methyl-1H-indazol-4-yl)-2-((5R)-5-methyl-2-(2-propenoyl)-2,6-diazaspiro[3.4]octan-6-yl)-3-quinolinecarbonitrile|7-methoxy-4-(5-methyl-1H-indazol-4-yl)-2-((5S)-5-methyl-2-(2-propenoyl)-2,6-diazaspiro[3.4]octan-6-yl)-3-quinolinecarbonitrile]"
–,> 5000,18,102,"C=CC(=O)N1CC2(CCN(c3nc4c(c(-c5c(C)ccc6[nH]ncc56)c3C)COC(C)(C)C4)C2)C1 [Example 14-23, 1-(6-(3,7,7-trimethyl-4-(5-methyl-1H-indazol-4-yl)-7,8-dihydro-5H-pyrano[4,3-b]pyridin-2-yl)-2,6-diazaspiro[3.4]octan-2-yl)-2-propen-1-one]"
–,> 5000,76,67,"C=CC(=O)N1CC2(CCN(c3nc4c(c(-c5cc(O)cc6ccccc56)c3C)COC(C)(C)C4)C2)C1 [Example 14-26, 1-(6-(4-(3-hydroxy-1-naphthalenyl)-3,7,7-trimethyl-7,8-dihydro-5H-pyrano[4,3-b]pyridin-2-yl)-2,6-diazaspiro[3.4]octan-2-yl)-2-propen-1-one]"
